Where a SMILES comes first, the peptide text is derived from it. Bridges are numbered along the chain shown (N, C = ends). [ ]: non-standard residue; d: D form. Some results are limits rather than exact numbers.

Drawing on patent US7417024B2, “Template-fixed peptidomimetics as inhibitors of serine proteases” (Polyphor Ltd., priority 2001, dated 2008), this text covers Ki for 14 molecules.

Assay [1] has as its target Chymotrypsin (Homo sapiens, UniProt P17538). Put plainly: Enzymatic assay, chymotrypsin inhibition (apparent Ki). It counts as biochemical. As to conditions: substrate N-succinyl-Ala-Ala-Pro-Phe-4-nitroanilide 1.6 mM. The procedure: (§1) The active enzyme concentrations were calculated using the equation described by Hendersen (P. J. F. Hendersen, Biochem. J. 1972, 127, 321-333). The inhibitor concentrations were determined by quantitative amino acid analysis. All assays were repeated in quadruplicate.
(§2) As above, except the substrate was N-succinyl-L-alanyl-L-alanyl-L-prolyl-L-phenylalanin-4-nitroanilide (N-succinyl—SEQ ID NO:16—4-nitroanilide; 1.6 mM).
(§3) Apparent Ki values were calculated by fitting the initial rate data to the following equation, which assumes competitive tight-binding inhibition (J. F. Williams, J. F. Morrison, Methods Enzymol. 1979, 63, 437-467): […]

Assay [2] has as its target T1, Trypsin (Bos taurus, UniProt P00760).
T1 sequence (P00760 24-246): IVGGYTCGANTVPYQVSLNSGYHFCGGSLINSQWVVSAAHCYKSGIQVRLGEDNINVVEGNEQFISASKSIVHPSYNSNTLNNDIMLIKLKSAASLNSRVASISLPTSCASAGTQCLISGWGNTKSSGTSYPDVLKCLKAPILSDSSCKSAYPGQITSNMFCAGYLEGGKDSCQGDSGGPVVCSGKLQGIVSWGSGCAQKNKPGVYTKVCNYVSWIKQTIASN
Put plainly: Enzymatic assay, determination of antitrypsin activity (apparent Ki). It is filed as biochemical. As to conditions: competitive tight-binding fit. The procedure: as §1
Determination of Antitrypsin Activity
as §2, §3

Assay [3] addresses T2, Cathepsin G (human, UniProt P08311 21-244).
T2 construct: the assay paragraph itself says only 'cathepsin G ... purchased from Calbiochem'; also called human cathepsin G
T2 sequence (looked up): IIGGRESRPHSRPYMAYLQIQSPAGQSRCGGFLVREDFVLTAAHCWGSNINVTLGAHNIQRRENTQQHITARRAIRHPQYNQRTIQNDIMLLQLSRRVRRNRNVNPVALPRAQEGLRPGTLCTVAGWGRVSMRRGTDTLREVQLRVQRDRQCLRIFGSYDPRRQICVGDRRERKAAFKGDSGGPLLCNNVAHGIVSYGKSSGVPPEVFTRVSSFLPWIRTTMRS
Put plainly: enzyme inhibition, Suc-Ala-Ala-Pro-Phe-pNA substrate, release of p-nitroanilide at 405 nm. The procedure: Determination of Anti Cathepsin G Activity […] of a solution of cathepsin G (0.2 U/mL, corresponding to around 2 µM, purchased from Calbiochem) were incubated for 15 minutes with increasing concentrations of inhibitor. The assays were carried out at 37° C. in a total volume of 700 µl of HEPES buffer (pH 7.5; 0.1 mol/L) containing 0.05 mol/L CaCl_2. Then, 70 µl of the following substrate at 20 mM in DMSO were added (—N-succinyl-L-alanyl-L-alanyl-L-prolyl-L-phenylalanin-4-nitroanilide, (N-succinyl—SEQ ID NO:16—4-nitroanilide). The release of p-nitroanilide was monitored at 405 nm to determine the initial velocities of the reactions. Each measurement was reproduced three times (A. J. Barrett, Methods in Enzymology 1981, 80, 561-565).

Assay [4] has as its target Trypsin. The experiment in a line: enzyme inhibition, chromogenic substrate; apparent Ki fitted as competitive tight-binding inhibition.
Assay [5] deals with Chymotrypsin. The assay is described as above.

Chain of Chymotrypsin (Homo sapiens, UniProt P17538) (P17538 19-263): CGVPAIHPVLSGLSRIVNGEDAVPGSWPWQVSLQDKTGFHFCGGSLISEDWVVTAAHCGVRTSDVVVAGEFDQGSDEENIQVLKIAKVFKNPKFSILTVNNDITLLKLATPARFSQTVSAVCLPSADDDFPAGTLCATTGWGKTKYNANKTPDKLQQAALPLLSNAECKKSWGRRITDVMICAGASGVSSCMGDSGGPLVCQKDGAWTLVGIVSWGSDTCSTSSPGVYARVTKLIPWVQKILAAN

`CC[C@H](C)[C@@H]1NC(=O)[C@@H]2CCCN2C(=O)[C@@H]2CCCN2C(=O)[C@H]([C@@H](C)CC)NC(=O)[C@H](CO)NC(=O)[C@H](CCCCN)NC(=O)[C@H]([C@@H](C)O)NC(=O)[C@@H]2CCCN2C(=O)[C@H]2CCCN2C1=O` [Ex. 1] (cyclo(TKSIPPI[dP]P)): the Ki is greater than 10000 nM in assay [1] and 100 nM in assay [2]. For the molecule `CC[C@H](C)[C@@H]1NC(=O)[C@@H]2CCCN2C(=O)[C@@H]2CCCN2C(=O)[C@H]([C@@H](C)CC)NC(=O)[C@H](CO)NC(=O)[C@H](CCCCN)NC(=O)[C@H](C)NC(=O)[C@@H]2CCCN2C(=O)[C@H]2CCCN2C1=O` [Ex. 2] (cyclo(AKSIPPI[dP]P)), in assay [2], the Ki worked out at 1500 nM. Turning to `CC[C@H](C)[C@@H]1NC(=O)[C@@H]2CCCN2C(=O)[C@@H]2CCCN2C(=O)[C@H]([C@@H](C)CC)NC(=O)[C@H](CO)NC(=O)[C@H](C)NC(=O)[C@H]([C@@H](C)O)NC(=O)[C@@H]2CCCN2C(=O)[C@H]2CCCN2C1=O` [Ex. 3] (cyclo(TASIPPI[dP]P)), the Ki in assay [2] is greater than 10000 nM. As for `CC[C@H](C)[C@@H]1NC(=O)[C@@H]2CCCN2C(=O)[C@@H]2CCCN2C(=O)[C@H]([C@@H](C)CC)NC(=O)[C@H](C)NC(=O)[C@H](CCCCN)NC(=O)[C@H]([C@@H](C)O)NC(=O)[C@@H]2CCCN2C(=O)[C@H]2CCCN2C1=O` [Ex. 4] (cyclo(TKAIPPI[dP]P)), the Ki in assay [2] came out at 700 nM. As for `CC[C@H](C)[C@@H]1NC(=O)[C@@H]2CCCN2C(=O)[C@@H]2CCCN2C(=O)[C@H](C)NC(=O)[C@H](CO)NC(=O)[C@H](CCCCN)NC(=O)[C@H]([C@@H](C)O)NC(=O)[C@@H]2CCCN2C(=O)[C@H]2CCCN2C1=O` [Ex. 5] (cyclo(TKSAPPI[dP]P)), the Ki in assay [2] was determined as 1900 nM.

On to `CC[C@H](C)[C@@H]1NC(=O)[C@H](CO)NC(=O)[C@H](CCCCN)NC(=O)[C@H]([C@@H](C)O)NC(=O)[C@@H]2CCCN2C(=O)[C@H]2CCCN2C(=O)[C@H]([C@@H](C)CC)NC(=O)[C@@H]2CCCN2C(=O)[C@H](C)NC1=O` [Ex. 6] (cyclo(TKSIAPI[dP]P)), for which the Ki in assay [2] was greater than 25000 nM. As to `CC[C@H](C)[C@@H]1NC(=O)[C@H](C)NC(=O)[C@@H]2CCCN2C(=O)[C@H]([C@@H](C)CC)NC(=O)[C@H](CO)NC(=O)[C@H](CCCCN)NC(=O)[C@H]([C@@H](C)O)NC(=O)[C@@H]2CCCN2C(=O)[C@H]2CCCN2C1=O` [Ex. 7] (cyclo(TKSIPAI[dP]P)), the Ki in assay [2] came out at 110 nM. Same read-out and setting: then `CC[C@H](C)[C@@H]1NC(=O)[C@H](CO)NC(=O)[C@H](CCCCN)NC(=O)[C@H]([C@@H](C)O)NC(=O)[C@@H]2CCCN2C(=O)[C@H]2CCCN2C(=O)[C@H](C)NC(=O)[C@@H]2CCCN2C(=O)[C@@H]2CCCN2C1=O` [Ex. 8] (cyclo(TKSIPPA[dP]P)), with 710 nM. `CC[C@H](C)[C@@H]1NC(=O)[C@@H]2CCCN2C(=O)[C@@H]2CCCN2C(=O)[C@H]([C@@H](C)CC)NC(=O)[C@H](CO)NC(=O)[C@H](Cc2ccc(O)cc2)NC(=O)[C@H]([C@@H](C)O)NC(=O)[C@@H]2CCCN2C(=O)[C@H]2CCCN2C1=O` [Ex. 9] (cyclo(TYSIPPI[dP]P)): the Ki is 4400 nM in assay [1] and greater than 25000 nM in assay [2].

For `CC[C@H](C)[C@@H]1NC(=O)[C@@H]2CCCN2C(=O)[C@@H]2CCCN2C(=O)[C@H]([C@@H](C)CC)NC(=O)[C@H](CO)NC(=O)[C@H](Cc2c[nH]c3ccccc23)NC(=O)[C@H]([C@@H](C)O)NC(=O)[C@@H]2CCCN2C(=O)[C@H]2CCCN2C1=O` [Ex. 10] (cyclo(TWSIPPI[dP]P)), the Ki is 1400 nM in assay [1] and greater than 20000 nM in assay [2].

In the case of `CC[C@H](C)[C@@H]1NC(=O)[C@@H]2CCCN2C(=O)[C@@H]2CCCN2C(=O)[C@H]([C@@H](C)CC)NC(=O)[C@H](CO)NC(=O)[C@H](Cc2ccccc2)NC(=O)[C@H]([C@@H](C)O)NC(=O)[C@@H]2CCCN2C(=O)[C@H]2CCCN2C1=O` [Ex. 11] (cyclo(TFSIPPI[dP]P)), the Ki is 4700 nM in assay [1] and greater than 20000 nM in assay [2]. `CC[C@H](C)[C@@H]1NC(=O)[C@@H]2CCCN2C(=O)[C@@H]2CCCN2C(=O)[C@H]([C@@H](C)CC)NC(=O)[C@H](CO)NC(=O)[C@H](CCCCN)NC(=O)[C@H]([C@@H](C)O)NC(=O)[C@@H]2CSSC[C@H](NC1=O)C(=O)N[C@@H](Cc1ccccc1)C(=O)N1CCC[C@@H]1C(=O)N1CCC[C@H]1C(=O)N[C@@H](CCCNC(=N)N)C(=O)N2` [Ex. 15] (cyclo(RCTKSIPPICF[dP]P); disulfide 2-10): the Ki was determined as 3800 nM in assay [1] and 21 nM in assay [2].

B1: Ex. 15 (peptide)
peptide: cyclo(RCTKSIPPICF[dP]P)
modifications: disulfide 2-10
SMILES: CC[C@H](C)[C@@H]1NC(=O)[C@@H]2CCCN2C(=O)[C@@H]2CCCN2C(=O)[C@H]([C@@H](C)CC)NC(=O)[C@H](CO)NC(=O)[C@H](CCCCN)NC(=O)[C@H]([C@@H](C)O)NC(=O)[C@@H]2CSSC[C@H](NC1=O)C(=O)N[C@@H](Cc1ccccc1)C(=O)N1CCC[C@@H]1C(=O)N1CCC[C@H]1C(=O)N[C@@H](CCCNC(=N)N)C(=O)N2
notes: n=11 mimetic made by procedure 3 (disulfide between P2 and P10)
Regarding B1, the figures for the Ki in assay [3], in assay [4] and in assay [5] were 10000 nM, 21 nM and 3800 nM, respectively.

B2: Ex. 1 (peptide)
peptide: cyclo(TKSIPPI[dP]P)
SMILES: CC[C@H](C)[C@@H]1NC(=O)[C@@H]2CCCN2C(=O)[C@@H]2CCCN2C(=O)[C@H]([C@@H](C)CC)NC(=O)[C@H](CO)NC(=O)[C@H](CCCCN)NC(=O)[C@H]([C@@H](C)O)NC(=O)[C@@H]2CCCN2C(=O)[C@H]2CCCN2C1=O
notes: Template-fixed beta-hairpin mimetic, cyclic; parent of the Ala scan
B2: the Ki in assay [3] turned out to be 100000 nM; in assay [4] it was 100 nM.
